Patent US5866570A, “Treatment of vascular leakage and related syndrome such as septic shock by administration of metalloproteinase inhibitors” (Wisconsin Alumni Research Foundation, priority 1994, dated 1999)
Values joined by “and” are separate entries in the source; they are usually repeats but may differ in a detail not shown here. Identical values can stand only once. Like-named read-outs stand apart in the source and are kept apart here.

Columns and labels:
[1] = test system: Lewis lung LL carcinoma; settings: cited from earlier work
[2] = test system: LS-MET-5 human colon carcinoma cells; experiment: LS-MET-5 i.v. human colon carcinoma metastasis model in nude mice; format: in vivo
Experimental: This example evaluates the effect of probimane on the survival of mice which have been injected with LS-MET-5 human colon carcinoma cells. In particular, probimane was given at 26 mg/kg in CMC, 1 intraperitoneal dose/day starting 1 day prior to intravenous injection of 1 million LS-MET-5 human colon carcinoma cells, at either 3 or 5 doses per week. During the first week the treated mice experienced a small weight drop and the dosage was decreased to 10.4 mg/kg. The control mice received CMC only at 10 μl/g.
Dose and Schedule--was suspended in sterile 1% CMC (carboxymethyl cellulose) […] by sonication in a water bath. […] Mice received drug 24 hours prior to injection of cells and each mouse received one dose/day i.p. for 5 consecutive days with 2 days of recovery or 3 consecutive days with 4 days of recovery. Treatment continued until mouse death or sacrifice.
LS-MET-5--human colon carcinoma metastatic variant cell line was developed at Oncologix, Inc. The cells are maintained in culture in DMEM+10% FBS and are dissociated for injection with trypsin/versine. The cells are resuspended in HBSS and 1 million cells injected in 100 μl into the lateral tail vein of the mouse.
Mice--HSD nu/nu female mice 6 weeks old (18-22 g) are weighed, tagged with a metal ear clip, and radomized for treatment or control groups. Mice are weighed daily and the dose of drug or vehicle is calculated.
Superficial metastases in the regional lymph nodes, dorsal thoracic brown fact pad, thigh muscle and on the rib cage begin appearing around day 22. Tumor growth is rapid with small metastases quickly coalescing to form a solid collar of metastases around the neck region of the mouse.
Although we have improved the incidence of mice with metastases by eliminating mice with less than perfect initial i.v. injections, we are still only 90% incidence. The experiment is terminated when the last mouse with evidence of metastases dies. The remaining mice are necropsied for presence of micro-metastases. We have found evidence that cells were indeed injected iv.

[3] = test system: mouse-embryo fibroblasts; settings: cited from earlier work
[4] = test system: mouse L cell; settings: l cells; read-out: ID50 inhibition of colony formation; cited from earlier work
[5] = postamputation schedule LL model

Structure (SMILES): O=C1CN2CCN3CC(=O)N(CN4CCOCC4)C(=O)[C@H]3[C@@H]2C(=O)N1CN1CCOCC1 (relative stereo)
- antimetastatic effect [1, 5]: considerable antimetastatic activity

Structure (SMILES): CC(CN1CC(=O)N(CN2CCOCC2)C(=O)C1)N1CC(=O)N(CN2CCOCC2)C(=O)C1 (stereo not drawn) [Probimane, probimane]
- toxicity (body weight) ([2]; 26 mg/Kg i.p. during the first week): weight drop indicated toxicity
- Mean IST ([2]; 3×/Week): 19%
- Mean Survival ([2]; 3×/Week): 52
- Median IST ([2]; 3×/Week): 18%
- Median Survival ([2]; 3×/Week): 47
- Day of Death ([2]; 3×/Week, 26 then 10.4 mg/kg i.p., single mice): 43 and 44 and 45 and 46 and 52 and 62 and 63
- Mean IST ([2]; 5×/Week): 16%
- Mean Survival ([2]; 5×/Week): 50
- Median IST ([2]; 5×/Week): 18%
- Median Survival ([2]; 5×/Week): 47
- Incidence of superficial metastases ([2]; Day 29, 3×/Week): 7/11
- superficial Mets/Mouse ([2]; Day 29, 3×/Week): 1.1
- Incidence of superficial metastases ([2]; Day 29, 5×/Week): 5/11
- superficial Mets/Mouse ([2]; Day 29, 5×/Week): 1.2
- Incidence of superficial metastases ([2]; Day 30, 3×/Week): 7/11
- superficial Mets/Mouse ([2]; Day 30, 3×/Week): 1.9
- Incidence of superficial metastases ([2]; Day 30, 5×/Week): 10/11
- superficial Mets/Mouse ([2]; Day 30, 5×/Week): 1.2
- Incidence of superficial metastases ([2]; Day 31, 3×/Week): 7/11
- superficial Mets/Mouse ([2]; Day 31, 3×/Week): 1.9
- Incidence of superficial metastases ([2]; Day 31, 5×/Week): 11/11
- superficial Mets/Mouse ([2]; Day 31, 5×/Week): 1.1
- Incidence of superficial metastases ([2]; Day 32, 3×/Week): 7/11
- superficial Mets/Mouse ([2]; Day 32, 3×/Week): 1.9
- Incidence of superficial metastases ([2]; Day 32, 5×/Week): 11/11
- superficial Mets/Mouse ([2]; Day 32, 5×/Week): 1.8
- condition of the treated mice ([2]; mouse, in vivo): pale and grayish in color, with scruffy coats, and were cold to the touch

Structure (SMILES): O=C1CN(CCN2CC(=O)NC(=O)C2)CC(=O)N1 [ICRF-154]
- IC50, inhibition of [3H]thymidine incorporation [3]: 2.0 µg/mL
- IC50 [4]: 7.3 µM

Structure (SMILES): CCC(CN1CC(=O)NC(=O)C1)N1CC(=O)NC(=O)C1 (stereo not drawn) [ICRF-192]
- IC50 [4]: 720 µM

Structure (SMILES): CC(C(C)N1CC(=O)NC(=O)C1)N1CC(=O)NC(=O)C1 (stereo not drawn) [ICRF-196]
- IC50, inhibition of [3H]thymidine incorporation [3]: inactive
- IC50 [4]: 150 µM

Structure (SMILES): O=C1CN(CCCN2CC(=O)NC(=O)C2)CC(=O)N1 [ICRF-161]
- IC50, inhibition of [3H]thymidine incorporation [3]: inactive

Structure (SMILES): O=C1CN2C[C@@H]3C(=O)N(CN4CCOCC4)C(=O)CN3C[C@@H]2C(=O)N1CN1CCOCC1 (relative stereo) [morpholinomethyl derivative of cis-23]
- antimetastatic effect ([1]; implanted LL carcinoma): inhibits metastasis

Structure (SMILES): O=C1CN2C[C@H]3C(=O)NC(=O)CN3C[C@@H]2C(=O)N1 [Compound 22]
- antimetastatic effect ([1]; implanted LL carcinoma): no antimetastatic effects

Structure (SMILES): O=C1CN2C[C@@H]3C(=O)NC(=O)CN3C[C@@H]2C(=O)N1 (relative stereo) [Compound 23]
- antimetastatic effect ([1]; implanted LL carcinoma): no antimetastatic effects
- antimetastatic effect ([1]; implanted LL carcinoma, listed as cis-23): does not exhibit any appreciable antimetastatic effect

Structure (SMILES): O=C1CN2CCN3CC(=O)N(CN4CCOCC4)C(=O)[C@H]3[C@H]2C(=O)N1CN1CCOCC1
- antimetastatic effect [1, 5]: most effective inhibitor of metastasis
